In the supplement of paper PMC10627819:

Experiments:
B. subtilis 168 [1] = test: fitness (endpoint OD595 vs no drug) (fraction); higher = more growth
Procedure, shortened: (§1)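 Plates with 384 wells were inoculated at OD595 0.01 using 30 µl of TSB, LB Lennox or CY, or 55 µl for S. pneumoniae. Incubation was at 37 °C, with OD595 measured every 30 min for 14 h. Fitness is the stationary-phase transition optical density over the robust mean of no-drug control wells, after first-reading background subtraction; it is capped at 1.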

S. pneumoniae D39V [2] = test: as above
Procedure, shortened: as §1

B. subtilis 168 [3] = test: Bliss interaction score (quartile over a dose matrix) (fitness difference); higher = more antagonism (negative = synergy)
Procedure, shortened: (§2)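 Fitness is OD595 at stationary-phase entry relative to the plate's robust no-drug mean, capped at 1. Single-drug fitness was inferred from combinations. The Bliss score is observed minus product-expected fitness, summarised by quartiles over technical, biological and donor/recipient replicates.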

S. aureus DSM 20231 = test: as above
Procedure, shortened: as §2

S. aureus Newman = test: as above
Procedure, shortened: as §2

S. pneumoniae D39V [4] = test: as above
Procedure, shortened: as §2
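Wherever Bliss interaction score (quartile over a dose matrix) is given: first quartile when negative (synergy) and third quartile when positive (antagonism).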

CN(C)C(=O)C(CCN1CCC(O)(c2ccc(Cl)cc2)CC1)(c1ccccc1)c1ccccc1 [Loperamide] + C[n+]1ccc(-c2cc[n+](C)cc2)cc1 [Paraquat]
fitness
Conditions	partner 1.25 µg/mL	partner 1.5 µg/mL	partner 2.5 µg/mL	partner 3 µg/mL	partner 5 µg/mL	partner 6 µg/mL
B. subtilis 168 [1], first compound 25 µg/mL	0.798	–	0.684	–	0.537	–
B. subtilis 168 [1], first compound 50 µg/mL	0.0367	–	0.0251	–	0.0432	–
B. subtilis 168 [1], first compound 100 µg/mL	0.0324	–	0.0267	–	0.0238	–
S. pneumoniae D39V [2], first compound 17.14 µg/mL	–	0.994	–	0.984	–	0.922
S. pneumoniae D39V [2], first compound 34.28 µg/mL	–	0.972	–	0.973	–	0.883

fitness, S. pneumoniae D39V [2], one replicate
Conditions	first compound 20 µg/mL	first compound 40 µg/mL	first compound 68.57 µg/mL	first compound 80 µg/mL
partner 1.5 µg/mL	≥ 1	≥ 1	0.934	≥ 1
partner 3 µg/mL	≥ 1	≥ 1	0.931	≥ 1
partner 6 µg/mL	≥ 1	≥ 1	0.853	≥ 1

Conditions	Bliss interaction score
B. subtilis 168 [3]	-0.103
S. aureus DSM 20231	0.177
S. aureus Newman	0.0662
S. pneumoniae D39V [4]	0.0549

C[C@H]1COc2c(N3CCN(C)CC3)c(F)cc3c(=O)c(C(=O)O)cn1c23 [Levofloxacin] + COc1c(N2C[C@@H]3CCCN[C@@H]3C2)c(F)cc2c(=O)c(C(=O)O)cn(C3CC3)c12 [Moxifloxacin]
B. subtilis 168 [1], first compound 0.001 µg/mL, one replicate
Conditions	fitness
partner 0.0312 µg/mL	0.575
partner 0.0625 µg/mL	0.0212
partner 0.125 µg/mL	0

Conditions	fitness
B. subtilis 168 [1], first compound 0.002 µg/mL, partner 0.0312 µg/mL	0.0439
B. subtilis 168 [1], first compound 0.002 µg/mL, partner 0.0625 µg/mL	0.0254
B. subtilis 168 [1], first compound 0.002 µg/mL, partner 0.125 µg/mL	0.0489
B. subtilis 168 [1], first compound 0.0039 µg/mL, partner 0.0312 µg/mL	0.0651
B. subtilis 168 [1], first compound 0.0039 µg/mL, partner 0.0625 µg/mL	0.0551
B. subtilis 168 [1], first compound 0.0039 µg/mL, partner 0.125 µg/mL	0.0554
B. subtilis 168 [1], first compound 0.0078 µg/mL, partner 0.0312 µg/mL	0.0472
B. subtilis 168 [1], first compound 0.0078 µg/mL, partner 0.0625 µg/mL	0.0515
B. subtilis 168 [1], first compound 0.0078 µg/mL, partner 0.125 µg/mL	0.0578
B. subtilis 168 [1], first compound 0.0312 µg/mL, partner 2 µg/mL	0.0397
B. subtilis 168 [1], first compound 0.0312 µg/mL, partner 4 µg/mL	0.0257
B. subtilis 168 [1], first compound 0.0312 µg/mL, partner 8 µg/mL	0.0215
B. subtilis 168 [1], first compound 0.0625 µg/mL, partner 2 µg/mL	0.0387
B. subtilis 168 [1], first compound 0.0625 µg/mL, partner 4 µg/mL	0.0417
B. subtilis 168 [1], first compound 0.0625 µg/mL, partner 8 µg/mL	0.0241
B. subtilis 168 [1], first compound 0.125 µg/mL, partner 2 µg/mL	0.0455
B. subtilis 168 [1], first compound 0.125 µg/mL, partner 4 µg/mL	0.0375
B. subtilis 168 [1], first compound 0.125 µg/mL, partner 8 µg/mL	0.0205
S. pneumoniae D39V [2], first compound 0.1725 µg/mL, partner 0.0037 µg/mL	0.882
S. pneumoniae D39V [2], first compound 0.1725 µg/mL, partner 0.0075 µg/mL	0.848
S. pneumoniae D39V [2], first compound 0.1725 µg/mL, partner 0.015 µg/mL	0.887
S. pneumoniae D39V [2], first compound 0.2 µg/mL, partner 0.005 µg/mL	0.899
S. pneumoniae D39V [2], first compound 0.2 µg/mL, partner 0.01 µg/mL	0.943
S. pneumoniae D39V [2], first compound 0.2 µg/mL, partner 0.02 µg/mL	0.857
S. pneumoniae D39V [2], first compound 0.345 µg/mL, partner 0.0037 µg/mL	0.723
S. pneumoniae D39V [2], first compound 0.345 µg/mL, partner 0.0075 µg/mL	0.69
S. pneumoniae D39V [2], first compound 0.345 µg/mL, partner 0.015 µg/mL	0.738
S. pneumoniae D39V [2], first compound 0.4 µg/mL, partner 0.005 µg/mL	0.842
S. pneumoniae D39V [2], first compound 0.4 µg/mL, partner 0.01 µg/mL	0.85
S. pneumoniae D39V [2], first compound 0.4 µg/mL, partner 0.02 µg/mL	0.77
S. pneumoniae D39V [2], first compound 0.69 µg/mL, partner 0.0037 µg/mL	0.418
S. pneumoniae D39V [2], first compound 0.69 µg/mL, partner 0.0075 µg/mL	0.391
S. pneumoniae D39V [2], first compound 0.69 µg/mL, partner 0.015 µg/mL	0.489

Conditions	Bliss interaction score
B. subtilis 168 [3]	0.0308
S. aureus DSM 20231	-0.0852
S. aureus Newman	-0.201
S. pneumoniae D39V [4]	-0.0874
